Test results taken from paper PMC2248166, “Quantitative peptide binding motifs for 19 human and mouse MHC class I molecules derived using positional scanning combinatorial peptide libraries” (Immunome Research, 2008).

Assays:
Type in all cases: binding
HLA B*0801 = HLA B*0801 (Homo sapiens, UniProt P01889, A93T/A95T/D138N/E176V/E187T/K202T/Q94N/R180D/S35A/V36M/Y33D/Y91F); test: biochemical
H-2 K^k = H-2 K^k (Mus musculus, UniProt P04223)
HLA B*5401 = HLA B*5401 (Homo sapiens, UniProt P01889, A329T/C349S/D138N/D201E/E176V/E187T/E204Q/E69G/I76V/K202T/L119W/R155S/R180L/S121T/S35A/S48A/V127L/V306I/V36M/Y140L)
H-2 D^d = H-2 D^d (Mus musculus, UniProt P01900)
HLA B*1501 = HLA B*1501 (Homo sapiens, UniProt P01889, A329T/A93T/A95T/C349S/D201E/D98Y/E187L/E204Q/E69M/E70A/K202T/N87E/Q94N/R155S/R180W/S121R/S35A/S48A/V306I/V36M/Y140S/Y91S); test: biochemical
HLA B*1503 = HLA B*1503 (Homo sapiens, UniProt P01889, A329T/A93T/A95T/C349S/D201E/D98Y/E187L/E204Q/K202T/N87E/Q94N/R155S/R180L/S121R/S35A/V306I/V36M/Y140S/Y91S); test: biochemical
HLA B*5301 = HLA B*5301 (Homo sapiens, UniProt P01889, A329T/A93T/A95T/C349S/D201E/D98Y/E176V/E187L/E204Q/E69T/G107R/I218V/K202T/L105A/L119I/N104I/Q94N/R106L/R155S/R180L/S101N/S121R/S35A/S48A/T118I/V127L/V306I/V36M/Y140S/Y91F)
HLA B*5801 = HLA B*5801 (Homo sapiens, UniProt P01889, A329T/C349S/D201E/D98Y/E176V/E187L/E204Q/E69T/G107R/I218V/I90N/K202T/L105A/L119I/N104I/N87E/Q89R/Q94S/R106L/R155S/R180L/R86G/S101N/S121R/S35A/S48A/T118I/V127L/V306I/V36M/Y140S/Y91M)
HLA A*3001 = HLA A*3001 (Homo sapiens, UniProt P04439, D140H/D185E/E176W/F33S/G80R/H175R/K168Q/R138E/R41S); test: biochemical
H-2 K^d = H-2 K^d (Mus musculus, UniProt P01902)
HLA B*5802 = HLA B*5802 (Homo sapiens, UniProt P01889, A329T/C349S/D201E/D98Y/E176V/E187L/E204Q/E69T/G107R/I218V/I90N/K202T/L105A/N104I/N87E/Q89R/Q94S/R106L/R155S/R180L/R86G/S101N/S121W/S35A/S48A/V127L/V306I/V36M/Y140S/Y91M)
H-2 D^b = H-2 D^b (Mus musculus, UniProt P01899)
HLA A*6802 = HLA A*6802 (Homo sapiens, UniProt P04439, A269V/D140Y/D185E/E176V/E277Q/E87N/F33Y/G231S/I121R/I166T/I218V/L180W/L300P/L318F/N151K/P208A/P217A/Q86R/R138H/R169H/S129P/T345S/V36M)
HLA B*3501 = HLA B*3501 (Homo sapiens, UniProt P01889, A329T/A93T/A95T/C349S/D201E/D98Y/E176V/E187L/E204Q/E69T/I218V/K202T/L119I/Q94N/R155S/R180L/S121R/S35A/S48A/T118I/V127L/V306I/V36M/Y140S/Y91F)
HLA A*3201 = HLA A*3201 (Homo sapiens, UniProt P04439, A270S/D101S/D185E/E176V/E277Q/F133L/G103R/G107R/G231S/H175R/I121M/I218V/I322F/K168Q/L105A/L300P/L318F/M331R/P208A/P217A/Q94H/R106L/R138Q/S129P/T104I/T323A/T345S/V100E/V321M/V358M); test: biochemical
HLA B*5101 = HLA B*5101 (Homo sapiens, UniProt P01889, A329T/A93T/A95T/C349S/D138N/D201E/D98Y/E187L/E204Q/E69T/G107R/I218V/K202T/L105A/L119W/N104I/Q94N/R106L/R155S/R180L/S101N/S121T/S35A/S48A/V306I/V36M/Y195H/Y91F)

H-2 K^k, sequence (P01887 21-119): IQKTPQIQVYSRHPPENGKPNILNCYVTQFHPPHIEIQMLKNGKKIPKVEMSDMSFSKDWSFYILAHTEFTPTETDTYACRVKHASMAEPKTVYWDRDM
H-2 K^k, sequence (P04223 22-369): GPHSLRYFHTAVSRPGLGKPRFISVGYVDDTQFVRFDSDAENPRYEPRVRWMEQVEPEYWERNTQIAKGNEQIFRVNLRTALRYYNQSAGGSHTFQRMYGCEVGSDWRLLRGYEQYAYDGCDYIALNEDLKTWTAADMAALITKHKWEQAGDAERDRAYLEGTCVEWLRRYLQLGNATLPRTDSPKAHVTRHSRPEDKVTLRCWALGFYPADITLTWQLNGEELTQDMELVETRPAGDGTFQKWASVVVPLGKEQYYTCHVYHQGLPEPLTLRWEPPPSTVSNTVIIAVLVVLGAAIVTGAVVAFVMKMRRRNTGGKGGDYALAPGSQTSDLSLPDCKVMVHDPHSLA
H-2 K^d, sequence (P01887 21-119): as the sequence (P01887 21-119) above
H-2 K^d, sequence (P01902 22-368): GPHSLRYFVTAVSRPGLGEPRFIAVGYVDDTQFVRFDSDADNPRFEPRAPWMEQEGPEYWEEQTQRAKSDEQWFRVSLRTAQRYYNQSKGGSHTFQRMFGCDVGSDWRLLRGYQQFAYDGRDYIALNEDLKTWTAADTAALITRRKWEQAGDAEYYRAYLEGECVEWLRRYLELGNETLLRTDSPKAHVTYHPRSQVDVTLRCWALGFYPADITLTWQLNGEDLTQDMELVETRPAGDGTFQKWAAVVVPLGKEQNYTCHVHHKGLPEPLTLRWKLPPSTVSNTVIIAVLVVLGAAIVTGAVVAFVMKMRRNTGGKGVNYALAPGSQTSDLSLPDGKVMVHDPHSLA
H-2 D^b, sequence (P01887 21-119): as the sequence (P01887 21-119) above
H-2 D^b, sequence (P01899 25-362): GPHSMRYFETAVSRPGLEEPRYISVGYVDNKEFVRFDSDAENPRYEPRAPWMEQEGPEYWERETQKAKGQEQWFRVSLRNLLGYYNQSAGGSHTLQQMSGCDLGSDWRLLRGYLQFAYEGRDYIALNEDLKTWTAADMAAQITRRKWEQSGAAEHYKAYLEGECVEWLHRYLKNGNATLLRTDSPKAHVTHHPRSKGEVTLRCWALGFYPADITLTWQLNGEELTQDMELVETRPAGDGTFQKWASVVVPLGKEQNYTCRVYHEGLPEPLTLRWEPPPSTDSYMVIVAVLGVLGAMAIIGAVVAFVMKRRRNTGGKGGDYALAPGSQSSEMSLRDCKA
H-2 D^d, sequence (P01900 whole entry, looked up): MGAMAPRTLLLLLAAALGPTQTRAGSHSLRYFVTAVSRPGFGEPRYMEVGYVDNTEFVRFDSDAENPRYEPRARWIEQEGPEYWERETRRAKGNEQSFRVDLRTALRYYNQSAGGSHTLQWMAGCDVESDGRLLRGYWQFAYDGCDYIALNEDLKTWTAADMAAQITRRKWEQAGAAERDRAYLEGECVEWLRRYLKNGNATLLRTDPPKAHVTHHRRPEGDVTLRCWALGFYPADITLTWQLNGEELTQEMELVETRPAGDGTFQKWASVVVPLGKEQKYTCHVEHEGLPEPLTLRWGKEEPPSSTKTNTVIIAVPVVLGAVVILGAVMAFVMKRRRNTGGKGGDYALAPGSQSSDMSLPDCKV

In the case of XXXXXXKXX [3064.0129], the “Normalized average relative binding affinity(ARB)” value (HLA B*0801) is reported as 0.26, the “Normalized average relative binding affinity(ARB)” value (H-2 K^k) is reported as 0.15 and the “Normalized average relative binding affinity(ARB)” value (HLA B*5401) is reported as 0.089. The “Normalized average relative binding affinity(ARB)” value (H-2 D^d) was 0.0067, the “Normalized average relative binding affinity(ARB)” value (HLA B*1501) was 0.15 and the “Normalized average relative binding affinity(ARB)” value (HLA B*1503) was 0.091. For the same sequence, the “Normalized average relative binding affinity(ARB)” value (HLA B*5301) was 0.022, the “Normalized average relative binding affinity(ARB)” value (HLA B*5801) was 0.037 and the “Normalized average relative binding affinity(ARB)” value (HLA A*3001) was 0.062. For the same sequence, the “Normalized average relative binding affinity(ARB)” value (H-2 K^d) was 0.023, the “Normalized average relative binding affinity(ARB)” value (HLA B*5802) was 0.031 and the “Normalized average relative binding affinity(ARB)” value (H-2 D^b) was 0.062. The “Normalized average relative binding affinity(ARB)” value (HLA A*6802) was 0.086, the “Normalized average relative binding affinity(ARB)” value (HLA B*3501) was 0.073 and the “Normalized average relative binding affinity(ARB)” value (HLA A*3201) was 0.030. For the same sequence, the “Normalized average relative binding affinity(ARB)” value (HLA B*5101) was 0.12.

With XXXXXXLXX [3064.0130] the “Normalized average relative binding affinity(ARB)” value (HLA B*0801) was 0.60, the “Normalized average relative binding affinity(ARB)” value (H-2 K^k) was 0.10 and the “Normalized average relative binding affinity(ARB)” value (HLA B*5401) was 0.13. For the same sequence, the “Normalized average relative binding affinity(ARB)” value (H-2 D^d) was 0.036, the “Normalized average relative binding affinity(ARB)” value (HLA B*1501) was 1.0 and the “Normalized average relative binding affinity(ARB)” value (HLA B*1503) was 0.24. For the same sequence, the “Normalized average relative binding affinity(ARB)” value (HLA B*5301) was 0.32, the “Normalized average relative binding affinity(ARB)” value (HLA B*5801) was 1.0 and the “Normalized average relative binding affinity(ARB)” value (HLA A*3001) was 0.21. For the same sequence, the “Normalized average relative binding affinity(ARB)” value (H-2 K^d) was 0.10, the “Normalized average relative binding affinity(ARB)” value (HLA B*5802) was 0.014 and the “Normalized average relative binding affinity(ARB)” value (H-2 D^b) was 0.26. The “Normalized average relative binding affinity(ARB)” value (HLA A*6802) was 0.56, the “Normalized average relative binding affinity(ARB)” value (HLA B*3501) was 0.21 and the “Normalized average relative binding affinity(ARB)” value (HLA A*3201) was 0.86. The “Normalized average relative binding affinity(ARB)” value (HLA B*5101) was 0.65.

XXXXXXMXX [3064.0131] was tested, and the “Normalized average relative binding affinity(ARB)” value (HLA B*0801) was 0.62, the “Normalized average relative binding affinity(ARB)” value (H-2 K^k) was 0.064 and the “Normalized average relative binding affinity(ARB)” value (HLA B*5401) was 0.065. For the same sequence, the “Normalized average relative binding affinity(ARB)” value (H-2 D^d) was 0.024, the “Normalized average relative binding affinity(ARB)” value (HLA B*1501) was 0.54 and the “Normalized average relative binding affinity(ARB)” value (HLA B*1503) was 0.18. For the same sequence, the “Normalized average relative binding affinity(ARB)” value (HLA B*5301) was 0.15, the “Normalized average relative binding affinity(ARB)” value (HLA B*5801) was 0.30 and the “Normalized average relative binding affinity(ARB)” value (HLA A*3001) was 0.32. For the same sequence, the “Normalized average relative binding affinity(ARB)” value (H-2 K^d) was 0.080, the “Normalized average relative binding affinity(ARB)” value (HLA B*5802) was 0.35 and the “Normalized average relative binding affinity(ARB)” value (H-2 D^b) was 0.24. For the same sequence, the “Normalized average relative binding affinity(ARB)” value (HLA A*6802) was 0.51, the “Normalized average relative binding affinity(ARB)” value (HLA B*3501) was 0.13 and the “Normalized average relative binding affinity(ARB)” value (HLA A*3201) was 0.10. The “Normalized average relative binding affinity(ARB)” value (HLA B*5101) was 0.68.

In the case of XXXXXXNXX [3064.0132], the “Normalized average relative binding affinity(ARB)” value (HLA B*0801) is reported as 0.69, the “Normalized average relative binding affinity(ARB)” value (H-2 K^k) is reported as 0.22 and the “Normalized average relative binding affinity(ARB)” value (HLA B*5401) is reported as 0.39. For the same sequence, the “Normalized average relative binding affinity(ARB)” value (H-2 D^d) was 0.095, the “Normalized average relative binding affinity(ARB)” value (HLA B*1501) was 0.66 and the “Normalized average relative binding affinity(ARB)” value (HLA B*1503) was 1.0. For the same sequence, the “Normalized average relative binding affinity(ARB)” value (HLA B*5301) was 0.29, the “Normalized average relative binding affinity(ARB)” value (HLA B*5801) was 0.37 and the “Normalized average relative binding affinity(ARB)” value (HLA A*3001) was 0.10. For the same sequence, the “Normalized average relative binding affinity(ARB)” value (H-2 K^d) was 0.61, the “Normalized average relative binding affinity(ARB)” value (HLA B*5802) was 0.092 and the “Normalized average relative binding affinity(ARB)” value (H-2 D^b) was 0.41. The “Normalized average relative binding affinity(ARB)” value (HLA A*6802) was 0.54, the “Normalized average relative binding affinity(ARB)” value (HLA B*3501) was 0.28 and the “Normalized average relative binding affinity(ARB)” value (HLA A*3201) was 0.42. For the same sequence, the “Normalized average relative binding affinity(ARB)” value (HLA B*5101) was 0.46.
